How the values were obtained:
Format in all cases: in vivo, rat
[1] = tested on: NK-1 receptor; test: Intradermal substance P-induced plasma extravasation in skin (Evans blue); settings: 300 micro grams/kg, Q12 h, intraperitoneal for 6 days; intradermal substance P 6.7 nmol/100 microlitres
Procedure: Intradermal injection of substance P and neurokinin A produce a wheal and flare inflammatory reaction. Antisense (AS) oligonucleotide (300 micro grams/kg, Q12 h, intraperitoneal) or saline was administered for 6 days prior to experimentation. Substance P or neurokinin A was injected into the dermis of the skin (6.7 nmol/100 microlitres) after intravenous administration of evans blue dye which allows for assessment of neuropeptide-induced plasma extravasation. […] Statistical analysis was performed using an unpaired t-test.

[2] = tested on: NK-1 receptor; test: Western blot of NK-1 receptor protein in lumbar spinal cord after intrathecal oligonucleotide, neuropathic pain model; settings: intrathecal 2 micro grams/microlitres/h, 48 h prior to sciatic nerve constriction and continuously for 6 days
Procedure: Oligonucleotides or ASCF control (artificial cerebral spinal fluid) was administered for 48 h prior to sciatic nerve constriction and continuously for 6 days (2 micro grams/microlitres/h) via Alzet® minipumps attached to intrathecal catheters for spinal delivery. Rats were sacrificed by decapitation and lumbar spinal cords were dissected and processed for Western blotting analysis. Samples were resolved using 10% Tris-glycine gels and the proteins were electroblotted onto nitrocellulose membranes. Molecular mass markers are presented in the right column. The arrow indicates the NK-1 receptor.

[3] = tested on: NK-1 receptor; test: Capsaicin test, nociceptive behaviour after plantar injection, intrathecal oligonucleotide; settings: intrathecal continuous infusion 2 micro grams/microlitres/h for 7 days; vs ACSF or MIS
Source text: The effect of intrathecal administration of NK-1 receptor antisense oligonucleotide on the nociceptive responses induced by capsaicin is shown in FIG. 2. This test consists of injecting a dilute solution of the active ingredient of hot peppers, capsaicin subcutaneously in the plantar surface of the rat hind paw. Capsaicin, C18H27NO3, is a known painful stimulus, especially of c-fibers, which are associated with substance P.
Capsaicin produces nociceptive (pain) behaviors over a period of about 5 minutes. The index of nociceptive behavior was assessed based a weighted pain intensity scale, where the animal is given a value of 0 for showing no signs of favoring of the injected paw, 1—favoring of hind paw such that it is resting lightly on the floor, 2—elevation of hind paw, 3—licking or vigorously shaking the hind paw. The numerical ratings were calculated by multiplying the amount of time the rats spent in each category by the weighted factor indicated above. This was expressed by the following formula: (time spent in category 0*0+time spent in category 1*1+time spent in category 2*2+time spent in category 3*3)/180 seconds. Oligonucleotides or ASCF control (artificial cerebral spinal fluid) were administered for 7 days prior to testing by continuous infusion (2 micro grams/microlitres/h) via Alzet™ minipumps attached to intrathecal catheters for spinal delivery. […]

[4] = tested on: NK-1 receptor; test: CFA ankle joint arthritis model, ankle circumference, intrathecal oligonucleotide; settings: intrathecal 1 micro grams/microlitres/h from 48 h prior to CFA injection; vs ACSF or MIS
Procedure: Complete Freund's Adjuvant (CFA) injection into the ankle joint of the rat produces two responses, an inflammatory response that begins within 24 hours and lasts approximately one week, and a later inflammatory response combined with symptoms modelling arthritis. Oligonucleotides or ASCF control (artificial cerebral spinal fluid) was administered for 48 h prior to CFA injection and continuously for the testing days (1 micro grams/microlitres/h) via Alzet® minipumps attached to intrathecal catheters for spinal delivery. […] Statistical analysis was performed using a one way ANOVA and post hoc analysis using the Dunnett's test.

[5] = tested on: NK-1 receptor; test: Mechanical response thresholds in naive rats, intrathecal oligonucleotide; settings: no surgery; intrathecal 1 micro grams/microlitres/h, prolonged administration
Procedure: The effect of intrathecal administration of NK-1 receptor antisense oligonucleotide on mechanical response thresholds in naive rats is shown in FIG. 6.
Oligonucleotides or ASCF control (artificial cerebral spinal fluid) were administered for 2 days prior to surgery, and throughout the time course of testing, by continuous infusion (1 micro grams/microlitres/h) via Alzet® minipumps attached to intrathecal catheters for spinal delivery.

[6] = tested on: NK-1 receptor; test: CFA arthritis model, collagen breakdown products in plasma, systemic oligonucleotide; settings: days 3 and 18 following CFA injection; 300 micro grams/kg, Q12 h, intraperitoneal
Procedure: Complete Freund's Adjuvant (CFA) was injected into the ankle joint of the rat and the levels of collagen breakdown products were assessed on days 3 and 18 following CFA injection. This was accomplished by measuring collagen degradation in the plasma of blood samples taken from the tail vein of rats while lightly anesthetized with halothane anesthesia. Antisense (AS) oligonucleotide (300 micro grams/kg, Q12 h, intraperitoneal) or saline was administered for 2 days prior to CFA injection and for the subsequent 18 days. […] (Pervious experiments have identified that the levels of collagen breakdown products are maximal at day 3-5 after CFA injection). Statistical analysis was performed using an unpaired t-test.

[7] = tested on: NK-1 receptor; test: Zymosan model of inflammatory bowel disease, Evans blue plasma extravasation of the colon; settings: 300 micro grams/kg, Q12 h, intraperitoneal for 6 days prior to rectal zymosan; Evans blue three hours after zymosan
Procedure: Inflammatory bowel disease (IBD) is a generic term used to describe major clinical entities including Crohn's disease and ulcerative colitis. IBD was simulated by rectal administration of zymosan, a complement-activating substance. Antisense (AS) oligonucleotide (300 micro grams/kg, Q12 h, intraperitoneal) or saline was administered for 6 days prior to zymosan administration. Three hours after administration of zymosan, rats are injected with Evans blue dye which enables the assessment of plasma extravasation of the colon (degree of inflammation). […] Statistical analysis was performed using an unpaired t-test.

5′gac gtt atc cat ttt ggg g3′ (antisense GACGTTATCCATTTTGGGG; listed as DNA, chemistry not fully specified) [NK-1 receptor antisense oligonucleotide used in all experiments]
substance P-induced plasma extravasation (skin) [1]: significantly reduced
NK-1 receptor protein expression (Western blot) compared to ACSF control [2]: significantly attenuates the protein expression
capsaicin-induced nociceptive behavior (weighted pain score) [3]: less time spent in nociceptive behavior
magnitude of inflammation, measured as ankle circumference [4]: less
mechanical response (withdrawal) threshold of either hind limb in naive rats [5]: had no effect
collagen breakdown products in plasma compared to saline controls [6]: significant attenuation
zymosan-induced plasma extravasation of the colon [7]: significantly lower

— US20030060438A1, “Oligonucleotides and other modulators of the NK-1 receptor pathway and therapeutic uses thereof” (priority 2000, published 2003)
